# Values of other authors as cited in patent US5801147A, “Polypeptides and use thereof” (Takeda Chemical Industries, Ltd., priority 1991, dated 1998).
# No end group written: not given here.
# Tested on: hypophysis cells
# Details: prior art
row,Substance,c-AMP-producing activity (background statement)
1,"PACAP23: polypeptide consisting of 23 amino acid residues on the N-terminal side of PACAP38 (HSDGIFTDSYSRYRKQMAVKKYL; ends and bridges not checked; UniProt P18509 132-154, looked up, fragment)",the same activity as that of PACAP27
2,"PACAP24: polypeptide consisting of 24 amino acid residues on the N-terminal side of PACAP38 (HSDGIFTDSYSRYRKQMAVKKYLA; ends and bridges not checked; UniProt P18509 132-155, looked up, fragment)",the same activity as that of PACAP27
3,"PACAP25: polypeptide consisting of 25 amino acid residues on the N-terminal side of PACAP38 (HSDGIFTDSYSRYRKQMAVKKYLAA; ends and bridges not checked; UniProt P18509 132-156, looked up, fragment)",the same activity as that of PACAP27
4,"PACAP26: polypeptide consisting of 26 amino acid residues on the N-terminal side of PACAP38 (HSDGIFTDSYSRYRKQMAVKKYLAAV; ends and bridges not checked; UniProt P18509 132-157, looked up, fragment)",the same activity as that of PACAP27
5,"PACAP27: a polypeptide consisting of 27 amino acid residues on the N-terminal side of PACAP38 (HSDGIFTDSYSRYRKQMAVKKYLAAVL; ends and bridges not checked; UniProt P18509 132-158, looked up)",The activity of PACAP38 has also been found
6,"PACAP38: polypeptide consisting of 38 amino acid residues, discovered in humans, sheep and rats (SEQ ID NO:1) (HSDGIFTDSYSRYRKQMAVKKYLAAVLGKRYKQRVKNK; ends and bridges not checked)",enhances the production of intracellular c-AMP in hypophysis cells
